Experimental data reported in patent EP0324328B1, “Use of the N-n-butyl derivative of desoxynojirimycin in the manufacture of a medicament inhibiting HIV-Virus” (priority 1987, dated 1989).
Where two headings read alike, the source gives them in different places.

Columns and labels:
HIV [1] = details: result in words; see Fleet et al., FEBS Lett., In Press, 1988; cited from earlier work
T-45 cells = assay type: cell-based, human; details: for Estimated Cell Growth Virus-uninfected Day 7: no-drug control 1.2x10^6; for cytotoxicity: non-infected cells, over the concentration range used (Fig. 3, Table 1), result in words
Experimental: FIG. 1 is a schematic outline of the test procedure used to assess the cytotoxic effect of test compounds on T-cells either infected or non-infected with HIV and in parallel the HIV inhibitory activity of the test compounds. TCID is the tissue culture infectious dose. Cells were cultured in RPMI-1640 medium with 10% fetal calf serum containing 100 units/ml penicillin G and 100 µg/ml streptomycin.
(§1) The assay was run in 96 well plastic microtiter plates in which 0.2 ml of culture medium containing 10^4 T-cells are seeded into each well. RPMI-1640 supplemented with 10% fetal calf serum was used as the culture medium. In each assay, 6 wells are used. Three (1-3) are infected with 10^4 TCID/well of HIV-1 or HIV-2 and to the other three (4-6) culture medium alone is added. Medium is changed at the same intervals for each test compound. The detailed assay procedure is illustrated in Figures 1 and 2.
(§2) The efficacy of the test compounds used in this example was assessed as follows: 0.2 ml of culture medium containing 10^4 T-45 cells were transferred into each well of a 96-well flat-bottomed tissue-culture plastic plate and the cells were allowed to settle at 37°C (see Figure 1). After 4 hours the media were aspirated and replaced with media which contained the test compound. Following overnight incubation the media was aspirated and 10^4 TCID of virus (HIV-1 or HIV-2) was added to each well. Incubation was continued at 37°C in 5% CO2 for 1 hour. Thereafter, growth media containing the various compounds were added and incubation at 37°C was continued. On the fourth day the cell suspensions from each well were split and seeded into two new wells and 0.2 ml of fresh media with compounds was added. This was repeated on the seventh day. Cells were examined by microscopy during days 1 to 10 for the presence of syncytia, growth rate and the appearance of the cytopathic effect (CPE) (giant cells, pycnotic nuclei, loss of refractility). CPE (100%) was defined as no round, refractile, uniform cells remaining; only giant, ballooned pyknotic cells were present. The viability of HIV infected cultures was determined by a rough count/estimate of cells which underwent CPE in relation to round refractile uniform (normal) cells in a given culture.
Quantitative data on the effect of the various compounds on the non-infected cells (cytotoxicity) was obtained by comparison of their growth rate to control cells not exposed to drugs (Table 1). […] In addition, the MOLT-4 cell line was also used.

HIV [2] = experiment: TCID titre of culture supernatants of T-45 cells infected with HIV, Fig. 4; assay type: cell-based; details: for reduction of TCID titre of culture supernatants: T-45 cells infected with HIV, after 10 days in culture, result in words
Experimental: FIG. 4 is a graphical representation in which the viral titer (determined as TCID) is plotted against the concentration in mg/ml of various of the test compounds (drugs) of FIG. 3 in panels (a) and (b).
(§3) Cell free suspensions of the HIV were prepared from infected cultures. The concentration of infectious particles was estimated on end-point titration assay using serial ten-fold dilutions. The approximate number of infectious particles in each preparation was determined by the highest dilution which contains infectious HIV as determined by synctial formation, cytopathicity [Leonard et al., Proc. Natl. Acad. Sci. USA 85, 3570-3574 (1988); Barre-Sinoussi et al., Science 220, 868-870 (1983)] and HIV antigen [Karpas et al., Lancet 1, 695-697 (1985)] synthesis after 10 days of culture with 10^4 T-cells. This represents the concentration of infectious particles, herein defined as the tissue culture infectious dose (TCID).
as §2, with “culture. Cells in wells which were incubated with compounds which appeared to inhibit or reduce HIV replication and in which there was marked cell proliferation were either transferred to larger wells (of a 24-well plate) or divided in order to maintain an approximate constant cell density to promote continuous cell division.” for “culture.”
Quantitative data on the effect of the various compounds on the non-infected cells (cytotoxicity) was obtained by comparison of their growth rate to control cells not exposed to drugs (Table 1). Fig. 4 and Table 2 show the relation between the TCID titre of culture supernatants of T-45 cells infected with HIV after 10 days in culture and the concentration of drug. […] The inability of any of these drugs alone to totally reduce the TCID may be due to heterogeneity of virus production or spread. […] In addition, the MOLT-4 cell line was also used.

HIV-1 = experiment: Virus titer (TCID) of HIV-1 infected T-cell cultures grown with test compound; assay type: cell-based; details: control 10^6; for HIV-1 (TCID): Table 2, 0.10 mg/ml, 10^4 T-45 or MOLT-4 cells (identical results), 10^4 TCID inoculum, after day 10; for VIRUS TITER HIV-1: Table 3, Example 2, 0.1 mg/ml, T-45 and MOLT-4 cells, 10^4 TCID on 10^4 cells
Experimental: as §3, §1
as §2, with “culture. Cells in wells which were incubated with compounds which appeared to inhibit or reduce HIV replication and in which there was marked cell proliferation were either transferred to larger wells (of a 24-well plate) or divided in order to maintain an approximate constant cell density to promote continuous cell division.” for “culture.”
(§4) That is, HIV-1 was first passaged in T-45 cells; likewise, HIV-1 was first passaged in MOLT-4 cells. The same passaging was done with HIV-2. The test compounds were used at a concentration of 0.1 mg/ml. 10^4 TCID of HIV-1 and separately of HIV-2 were used to infect 10^4 cells. Upon completion of the test, the virus titers were as follows: TABLE 3

HIV-2 = experiment: Virus titer (TCID) of HIV-2 infected T-cell cultures grown with test compound; assay type: cell-based; details: control 10^6; for HIV-2 (TCID): Table 2, 0.10 mg/ml, 10^4 T-45 or MOLT-4 cells (identical results), 10^4 TCID inoculum, after day 10; for VIRUS TITER HIV-2: Table 3, Example 2, 0.1 mg/ml, T-45 and MOLT-4 cells, 10^4 TCID on 10^4 cells
Experimental: as §3, §1
as §2, with “culture. Cells in wells which were incubated with compounds which appeared to inhibit or reduce HIV replication and in which there was marked cell proliferation were either transferred to larger wells (of a 24-well plate) or divided in order to maintain an approximate constant cell density to promote continuous cell division.” for “culture.”
as §4

[3] = tested on: B16-F10 murine melanoma cells; experiment: Incorporation of radiolabeled galactose, mannose, glucose and thymidine into cells; assay type: cell-based; details: result in words
HIV [4] = details: Gruters et al., Nature 330, 74-77 (1987); cited from earlier work
HIV [5] = experiment: Inhibition of HIV-associated cytopathic effect (CPE) in T-45 cells; assay type: cell-based; details: HIV infected T-45 cells, various concentrations (Fig. 3); result in words
Experimental: FIG. 3 is a graphical representation in which the inhibition of HIV associated CPE (―% CPE) reduction) and test compound-associated cytotoxicity (---% cell death) is plotted against the media concentration in mg/ml of several test compounds (drugs). The cell viability data was determined for non-HIV infected cells. The test compounds were the N-methyl-, N-ethyl-, and N-butyl derivatives of deoxynojirimycin (DNJ), castanospermine (Cast), N-(5-carboxymethyl-1-pentyl)-1,5-imino-L-fucitol (LFT) and 1,4-dideoxy-1,4-imino-L-arabinitol (LAB).
After a suitable period of incubation, the cultures are scored for the presence of so-called syncytial cells (giant cells). Typical examples of such a test for the evaluation of inhibitors of HIV have been disclosed by Fung et al., Bio/Technology 5, 940-946 (1987); Tyms et al., Lancet, October 31, 1987, pp. 1025-1026; Gruters et al., Nature 330, 74-77 (1987); and Walker et al., Proc. Natl. Acad. Sci. USA 84, 8120-8124 (1987).
as §2, with “culture. Cells in wells which were incubated with compounds which appeared to inhibit or reduce HIV replication and in which there was marked cell proliferation were either transferred to larger wells (of a 24-well plate) or divided in order to maintain an approximate constant cell density to promote continuous cell division.” for “culture.”

OC[C@H]1NCC[C@@H](O)[C@@H]1O [fagomine]
HIV inhibitory activity / effect on CPE (HIV [1]): no HIV inhibition was observed

OC[C@@H]1NC[C@H](O)[C@H]1O [LAB, 1,4-dideoxy-1,4-imino-L-arabinitol]
Estimated Cell Growth Virus-uninfected Day 7 (T-45 cells; Dosage 0.10 mg/ml): 1.5x10^6
Estimated Cell Growth Virus-uninfected Day 7 (T-45 cells; Dosage 0.25 mg/ml): 1.5x10^6
Estimated Cell Growth Virus-uninfected Day 7 (T-45 cells; Dosage 0.50 mg/ml): 1.0x10^6
cytotoxicity (T-45 cells): showed no cytotoxicity over the concentration range used
reduction of TCID titre of culture supernatants (HIV [2]): only able to reduce the TCID partially
HIV inhibitory activity / effect on CPE (HIV [1]): strong HIV inhibitory activity

OC[C@H]1NC[C@H](O)[C@@H](O)[C@@H]1O [DNJ, 1,5-dideoxy-1,5-imino-D-glucitol]
Estimated Cell Growth Virus-uninfected Day 7 (T-45 cells; Dosage 0.25 mg/ml): 1.4x10^6
Estimated Cell Growth Virus-uninfected Day 7 (T-45 cells; Dosage 0.50 mg/ml): 1.4x10^6
HIV-1 (TCID) (HIV-1): 10^5 TCID
VIRUS TITER HIV-1 (HIV-1): 10^5
HIV-2 (TCID) (HIV-2): 10^5 TCID
VIRUS TITER HIV-2 (HIV-2): 10^5
reduction of TCID titre of culture supernatants (HIV [2]): reduced the TCID only partially
galactose incorporation into the cells ([3]; radiolabeled galactose): substantially inhibited galactose incorporation into the cells at 1.0 mM or less
glucose utilization/inhibition ([3]; radiolabeled glucose): inhibited in a normal dose-response manner
mannose utilization ([3]; radiolabeled mannose): inhibited mannose utilization
^3H-Thymidine uptake into the cells [3]: inhibited incorporation at 2.0 mM
effect upon HIV infectivity (HIV [4]): positive effect

CCN1C[C@H](O)[C@@H](O)[C@H](O)[C@H]1CO [EtDNJ, N-ethyl-deoxynojirimycin]
Estimated Cell Growth Virus-uninfected Day 7 (T-45 cells; Dosage 0.01 mg/ml): 1.2x10^6
Estimated Cell Growth Virus-uninfected Day 7 (T-45 cells; Dosage 0.05 mg/ml): 1.2x10^6
Estimated Cell Growth Virus-uninfected Day 7 (T-45 cells; Dosage 0.10 mg/ml): 1.3x10^6
cytotoxicity (T-45 cells): cytotoxic
HIV-1 (TCID) (HIV-1): 10^3 TCID
VIRUS TITER HIV-1 (HIV-1): 10^3
HIV-2 (TCID) (HIV-2): 10^3 TCID
VIRUS TITER HIV-2 (HIV-2): 10^3
reduction of TCID titre of culture supernatants (HIV [2]): reduced the TCID only partially
reduction of the virus titer / yield of infectious HIV (HIV [2]; at non-cytotoxic concentrations): two to four log-order of reduction
effect on CPE formation (HIV [5]): bell shaped dose-dependence

OC[C@H]1NC[C@@H](O)[C@@H]1O [D-enantiomer of 1,4-dideoxy-1,4-imino-arabinitol, 1,4-dideoxy-1,4-imino-arabinitol]
HIV inhibitory activity / effect on CPE (HIV [1]): very little effect on HIV replication

O[C@@H]1[C@@H](O)[C@@H](O)CN2CC[C@@H](O)[C@@H]12 [L-6-epicastanospermine]
HIV inhibitory activity / effect on CPE (HIV [1]): neither the epimer L-1,6-diepicastanospermine nor the stereoisomer of castanospermine, L-6-epicastanospermine, were found to be inhibitory

OC[C@H]1NC[C@@H](O)[C@@H](O)[C@@H]1O [DMJ, deoxymannojirimycin]
effect upon HIV infectivity (HIV [4]): absence of effect

N-(5-carboxymethyl-1-pentyl)-1,5-imino-L-fucitol [LFT]
reduction of TCID titre of culture supernatants (HIV [2]): only able to reduce the TCID partially

O[C@@H]1[C@@H](O)[C@@H](O)CN2CC[C@H](O)[C@@H]12 [L-1,6-diepicastanospermine]
HIV inhibitory activity / effect on CPE (HIV [1]): neither the epimer L-1,6-diepicastanospermine nor the stereoisomer of castanospermine, L-6-epicastanospermine, were found to be inhibitory

OC[C@@H]1[C@@H](O)[C@H](O)[C@@H](O)CN1Cc1ccccc1 [N-benzyl derivative]
HIV inhibitory activity / effect on CPE (HIV [1]): Neither the azofuranose analog of glucose nor the N-benzyl derivative were found to have an effect on CPE
